A word on the IC50: it is the point on the concentration scale where inhibition reaches its midpoint.

Experimental findings from patent EP1430019B1, “SPHINGOLIPIDS” (priority 2001, dated 2003) are described below.

Data set [1] deals with sphingomyelinases. Kind of data set: Sphingomyelinase inhibition, HL60 cell sonicate (Table 4, acid or neutral not stated). The class given is biochemical, Human. On the procedure:
N-hexyl-sphingosyl phosphorylcholine (AD-2144) was tested as to its inhibitory effect on sphingomyelinases, acidic (i.e., with an optimum at about pH 5) or neutral (with a pH optimum at about pH 7.4). For this purpose a sonicate of HL60 leukemic cells was used as enzyme source. Increasing concentrations of AD-2144 were dispersed by a mixture of fluorescent and non-fluorescent sphingomyelin (Bodipy-C12-SPM:SPM, 1:19), buffer and 0.25% Triton-X100 in a volume of 100 µl. For acid sphingomyelinase 0.4M acetate buffer pH 5.0 was used; for neutral sphingomyelinase 0.2M Tris buffer, pH 7.4 and 5 mM magnesium chloride. To 100 µl of these dispersions, 100 µl of HL60 cells sonicate were added. Incubation was 2-3 hours after which 0.8 ml of chloroform:methanol 2:1 were added, stirred and the lower, chloroform phase was collected, dried and applied to a thin layer chromatography plate. The plate was developed in a mixture of chloroform and methanol, 87:3. The fluorescence of the product, i.e., Bodipy-C12-ceramide, was quantified.
For acid sphingomyelinase as well as for neutral spingomyelinase: at 300 µM of AD-2144 there was a reduction of over 60% in Bodipy-C12-ceramide. […]

Data set [2] relates to Bod3-SPM. Kind of data set: Sphingolipid metabolism from Bodipy-C3-ceramide in HL60 cells: Bod3-SPM. The class given is cell-based, Human. Particulars: for inhibition of Bod3-SPM (fluorescent image): HL60, 10 µM; for IC50: Homo sapiens, HL-60, 3 h, HL60, 3 hours, 2.5 µM Bodipy-C3-ceramide, cell + medium, read-out: Bod 3-SPM (IC50 for reduction). The protocol:
(§1) In order to examine the effect of the different compounds on sphingolipids metabolism, different cell lines were incubated with increasing concentrations of different compounds of the invention in the presence of 2.5 µM Bodipy-C3-ceramide that was added to the culture medium as a solution in dimethylsulfoxide (not exceeding 0.1% DMSO of the final volium). After 3 hours, cells and medium were collected and centrifuged. Cells were next extracted with chloroform- methanol containing 2% acetic acid 1:1 (by volume) and the medium was shaken with an equal volume of chloroform-methanol, 1:1 (by volume). The phases were separated by centrifugation and the lower chloroform phase was collected. The solvents were evaporated and applied to thin layer chromatography silica gel plates (Whatman 4865-821) with a concentrating zone.
(§2) Plates were developed as follows: For medium: in chloroform-methanol-H2O, 75:25:4 by volume. For cells: plates were first developed with chloroform-methanol, 9:1, then dried and re-run in chloroform-methanol: H2O, 65:35:4.
(§3) Standards of Bodipy-C3-ceramide: Bodipy-C3-glucosylceramide (Bod3-GC) and Bodipy C3 sphingomyelin (Bod3-SPM) were used as markers. The fluorescence of the respective Bod3-SPM and Bod3-GC spots was quantified using a Fuji FLA-2000 scanner.

Data set [3] addresses T1, Bod3-GC (Homo sapiens, UniProt Q16739).
T1 sequence (Q16739 1-394): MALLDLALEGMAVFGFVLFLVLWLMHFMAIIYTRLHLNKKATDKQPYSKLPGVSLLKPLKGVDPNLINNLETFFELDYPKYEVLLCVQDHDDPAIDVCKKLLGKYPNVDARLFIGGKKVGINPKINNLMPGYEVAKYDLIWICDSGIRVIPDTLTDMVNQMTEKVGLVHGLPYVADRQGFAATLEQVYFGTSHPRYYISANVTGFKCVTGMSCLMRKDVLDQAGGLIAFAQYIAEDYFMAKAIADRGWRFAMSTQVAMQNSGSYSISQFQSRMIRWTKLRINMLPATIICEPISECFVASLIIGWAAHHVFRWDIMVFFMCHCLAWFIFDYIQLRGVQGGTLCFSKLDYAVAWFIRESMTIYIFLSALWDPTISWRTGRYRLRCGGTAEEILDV
Kind of data set: Sphingolipid metabolism from Bodipy-C3-ceramide in HL60 cells: Bod3-GC. Particulars: HL60, 10 µM, Fig. 6. The class given is cell-based. The protocol:
as §1, §2, §3

Data set [4] has as its system HL60 cells. Kind of data set: HL60 cell viability by total protein content (Bradford). The class given is cell-based, Human. Particulars: for IC50: HL60, 2 days. On the procedure:
The effect of the AD-2646 compound on cell viability was further supported when the total protein content was quantified. HL60 cells were incubated as described above, with different concentrations of AD-2646. After 2 days the cells were collected, washed twice with saline, dispersed and following a short pulsing with a probe-sonicator their protein content was quantified by the Bradford procedure. Similarly to the viable cell counting results, the protein measurements indicated an IC50 value of 5 µM.
To analyze whether the AD-2646 compound may mediate its effect on cell viability and on total protein content, in cooperation with other compounds, the cooperative effect of this compound and Taxol was next evaluated. HL60 cells were incubated for two days with 4 µM AD2646 in the presence or absence of 2 ng Taxol. […]
(§4) The effect of different compounds of the invention on cell viability was next evaluated by measuring total cell protein quantity. Different cell lines were incubated for two days in the presence of increasing concentrations of the different compounds of the present invention.

Data set [5] has as its system U937 cells. The data set is described as follows: Apoptosis in U937 cells, DEVDase/caspase 3 activity kit. The class given is cell-based. Particulars: Homo sapiens, U-937; U937, 5 µM, 24 hours; read-out: number of apoptotic cells relative to control cells. On the procedure: Myeloid, leukemic U937 cells were incubated for 24 hours in the absence or in the presence of 5 µM AD-2672 and AD-2665. Cells were then collected and the percent of apoptotic cells was determined using a kit quantifying the DEVDase, caspase 3 activity. The number of apoptotic cells incubated with AD-2672 exceeded 6-fold those in the control cells. Cells incubated with AD-2665 exceeded 2.8-fold those in the control cells.

Data set [6] deals with HL60 cells. Kind of data set: HL60 cell viability, viable cell count with trypan blue. The class given is cell-based, Human. The protocol: The effect of AD-2646 on cell viability was analyzed by measuring cell mortality (viable cell count) and/or total protein quantity. HL60 cells grown in RMPI plus 10% fetal calf serum, were incubated with increasing concentrations of (2R,3R)-2-(N-tetradecylamine)-1-(4-nitrophenyl)-1,3-propanediol (AD-2646) in 6- or 24-well dishes. […] After 2 days the cells were collected, washed twice with saline, treated with trypan blue and the number of living (non-blue) cells was counted. Fig. 1 indicates an IC50 value of 5 µM.
Kinetic of the observed killing effect of the AD-2646 compound was next examined. HL60 cells were incubated with 40 µM of AD-2646 for 1, 3, 5 and 7 hours. Already after 1 hour a reduction of 60% of the viable cell number was observed.

Data set [7] deals with TSU-PR1 cells. The data set is described as follows: TSU-PR1 cytotoxicity by protein content. Particulars: Homo sapiens, 48 h; TSU-PR1, two days, Fig. 2. The class given is cell-based. On the procedure:
In order to evaluate the generality of AD-2646 compound effect on cell viability, other cell lines were subjected to the same procedures disclosed herein above.
TSU-PR1 cells (prostate cancer cells) were incubated for two days with increasing concentrations of AD-2646. The protein content measurements shown in Fig. 2 indicate that the cells were killed with an IC50 of 6-7 µM.

Data set [8] relates to Bod3-SPM. The data set is described as follows: Sphingolipid metabolism from Bodipy-C3-ceramide in TSU-PR1 cells: Bod3-SPM. The class given is cell-based. Particulars: Homo sapiens; TSU-PR1, 3 hours, Fig. 5; read-out: reduction of Bod3-SPM, IC50. The protocol: as §1, §2, §3
The effect of AD-2646 on sphingolipid metabolism was further examined using TSU-PR1 prostate cancer cells. […]

In data set [9] the test system is Swiss mice. Kind of data set: In vivo toxicity, mice viability. On the procedure: Six groups, each of 5 Swiss mice were injected, intra-peritoneally with solutions of AD-2646, at varying concentrations, each in a volume of 100 µl. Injections were performed on days 1, 2, 3, 4, and mice viability was tested (Table 5).
Data set [10] deals with MCF7-AdrR. The data set is described as follows: Cell viability by total cell protein quantity, MCF7-AdrR. The class given is cell-based. Particulars: Homo sapiens, 48 h, two days. The protocol:
as §4

The test system of data set [11] is MCF7-NCi. The data set is described as follows: Cell viability by total cell protein quantity, MCF7-NCi. The class given is cell-based. Particulars: Homo sapiens, 48 h, two days. On the procedure:
as §4

The subject of data set [12] is Bod 3-SPM. The data set is described as follows: Sphingolipid metabolism from Bodipy-C3-ceramide in MCF-NCi cells: Bod3-SPM. The class given is cell-based. Particulars: Homo sapiens, 3 hours, 2.5 µM Bodipy-C3-ceramide, read-out: Bod 3-SPM (IC50 for reduction). The protocol: as §1, §2, §3
Data set [13] relates to Bod 3-GC. The data set is described as follows: Sphingolipid metabolism from Bodipy-C3-ceramide in MCF-NCi cells: Bod3-GC. The class given is cell-based. Particulars: Homo sapiens, 3 hours, 2.5 µM Bodipy-C3-ceramide, read-out: Bod 3-GC (IC50 for reduction). The protocol:
as §1, §2, §3

The subject of data set [14] is Leishmania major promastigote. The data set is described as follows: Leishmania major promastigote cell count. The class given is cell-based. Particulars: promastigotes, 3 h, 27°C, cell counting; read-out: IC50 for cell reduction. The protocol:
2 × 10^5 Leishmania major promastigote cell, each in a volume of 100 µl were added to 100 µl medium (RPMI 1640 culture medium complemented with 20% FCS, 1% penicillin and 1% streptomycin) in 96-well plates containing zero and increasing concentrations of (2S,3R)-2-N-aminohexyl-1-(4-N-hexylamiuophenyl)-1,3-propanediol (AD-2663) in 2-fold serial dilution. After incubation period (3 h, 27°C) the number of cells was determined by counting on aliquot from each well on a Neulander cell counter under a microscope. The IC50 for cell reduction was 7 µM.

`CCCCCCCCCCCCC/C=C/[C@H](O)[C@@H](COP(=O)([O-])OCC[N+](C)(C)C)NCCCCCC` [AD-2144, N-hexyl-sphingosyl phosphorylcholine]: the “% reduction in Bodipy-C12-ceramide” value in data set [1] (AD-2144 concentration 50µl) is on record as 30%; in data set [1] (AD-2144 concentration 100µl) it was 44%; in data set [1] (AD-2144 concentration 150µl) it was 65%; in data set [1] (AD-2144 concentration 300µl) it was 82%.

`CCCCCCCCCCCC(=O)Nc1ccc([C@H](O)[C@@H](N)CO)cc1` [AD-2674]: the “inhibition of Bod3-SPM (fluorescent image)” value in data set [2] (Fig. 6) was “low inhibition of Bod3-SPM”. Moreover, the “reduction of the level of Bod3-GC (fluorescent image)” value in data set [3] was “much stronger reduction of the level of Bod3-GC”.

Consider `CCCCCCCCCCCC(=O)Nc1ccc([C@@H](O)[C@H](N)CO)cc1` [AD-2673], for which the IC50 in [4] (Homo sapiens, HL-60, 48 h) came out at 7.5 µM; in data set [2], 6 µM. For the same molecule, the “inhibition of Bod3-SPM (fluorescent image)” value in data set [2] (Fig. 6) was “low inhibition of Bod3-SPM”. Also, the “reduction of the level of Bod3-GC (fluorescent image)” value in data set [3] is listed as “much stronger reduction of the level of Bod3-GC”.

In the case of `CCCCCCCCCCCCCCN[C@H](CO)[C@H](O)c1ccc(N)cc1` [AD-2672, (2R,3R)-2-(N-tetradecylamine)-1-(4-aminophenyl)-1,3-propanediol], the fold induction at 5 µM in data set [5] worked out at 6. Moreover, the “level of Bod3-SPM (fluorescent image)” value in [2] (HL60, 5 and 10 µM, Fig. 6) is “strongly reduces the level of Bod3-SPM”. Moreover, the IC50 in data set [2] is 4 µM.

Take `CCCCCCCCCCCCCCN[C@H](CO)[C@H](O)c1ccc([N+](=O)[O-])cc1` [AD-2646, (2R, 3R)-2-(N-tetradecylamine)-1-(4-nitrophenyl)-1,3-propanediol]: the “reduction of the viable cell number” value in data set [6] (HL60, 40 µM, after 1 hour) is 60%. In addition, the IC50 in [6] (Homo sapiens, HL-60, 48 h, HL60, 2 days, trypan blue, Fig. 1) was 5 µM; in data set [4] (Homo sapiens, HL-60, 48 h), 5 µM; in data set [7], 6 to 7 µM; in data set [2], about 6 µM; in data set [8], about 5 µM. For the same molecule, the Protein content in data set [4] (HL60, two days, 4 µM AD2646 alone) came out at 174 µg. The “No. of mice in each day” value worked out at 5 in [9] (1mg/kg intra-peritoneally on days 1-4, group of 5, day 1); 5 in data set [9] (1mg/kg intra-peritoneally on days 1-4, group of 5, day 2); 5 in data set [9] (1mg/kg intra-peritoneally on days 1-4, group of 5, day 3); 5 in data set [9] (1mg/kg intra-peritoneally on days 1-4, group of 5, day 4); 5 in [9] (1mg/kg intra-peritoneally on days 1-4, group of 5, day 5); 5 in data set [9] (1mg/kg intra-peritoneally on days 1-4, group of 5, day 6). For the same molecule, the “No. of mice in each day” value in [9] (5mg/kg intra-peritoneally on days 1-4, group of 5, day 1) turned out to be 5; in data set [9] (5mg/kg intra-peritoneally on days 1-4, group of 5, day 2), 5; in data set [9] (5mg/kg intra-peritoneally on days 1-4, group of 5, day 3) it was 5; in data set [9] (5mg/kg intra-peritoneally on days 1-4, group of 5, day 4), 5; in [9] (5mg/kg intra-peritoneally on days 1-4, group of 5, day 5) it was 5; in data set [9] (5mg/kg intra-peritoneally on days 1-4, group of 5, day 6), 5.

For the molecule `CCCCCCNc1ccc([C@@H](O)[C@@H](CO)NCCCCCC)cc1` [AD-2665, (2R,3R)-2-(N-hexylamine)-1-(4-N-hexylaminophenyl)-1,3-propanediol], the IC50 in [10] is 7 µM; in data set [11], 3 µM; in [2], 4 µM; in data set [12], 7 µM; in [13] it was 10 µM. The fold induction at 5 µM in [5] was determined as 2.8.

With `CCCCCCNc1ccc([C@@H](O)[C@H](CO)NCCCCCC)cc1` [AD-2663, (2S,3R)-2-N-aminohexyl-1-(4-N-hexylamiuophenyl)-1,3-propanediol], in [14], the IC50 was 7 µM.

As for “(2R, 3S)-2-BOC-amino-1-[4-N-(dodecanoyl-12-N-BOC-amine)-phenyl)-1,3-propanediol [AD-2620]”, the IC50 in [4] came to 3 µM.
